What all share (format): in vivo
For data set [1], the system named is Beet Armyworm (Spodoptera exigua, LAPHEG). As to the kind of experiment: Bioassays on Beet Armyworm (BAW), 128-well diet tray assay. Conditions: Spodoptera exigua; for mortality at 50 µg/cm2: 168 h, second instar larvae, 50 μg/cm^2 of test molecule on artificial diet, 25° C., five to seven days, average of eight wells, read-out: BAW % Control (or Mortality) rating. A digest of the protocol: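 Eight diet wells per compound were treated at 50 μg/cm^2 (acetone-water 90:10), dried, then infested with 1–5 second-instar larvae each. After five to seven days at 25 °C under 14:10 photoperiod, mortality was scored and averaged across wells.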

Data set [2] has as its system Cabbage Looper (Trichoplusia ni, TRIPNI). Put plainly: Bioassays on Cabbage Looper (CL), 128-well diet tray assay. Conditions: Trichoplusia ni; for mortality at 50 µg/cm2: 168 h, second instar larvae, 50 μg/cm^2 of test molecule on artificial diet, 25° C., five to seven days, average of eight wells, read-out: CL % Control (or Mortality) rating. The essentials: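 Each of eight wells receives artificial diet treated at 50 μg/cm^2 with the test molecule, then one to five second-instar larvae. Incubation runs five to seven days at 25° C with a 14:10 light-dark cycle under vented covers. Mortality is scored per well as a percentage and averaged.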

In data set [3] the test system is Yellow Fever Mosquito (Aedes aegypti, AEDSAE). The following applies: for YFM rating: Table ABC / ABC-DP rating; for YFM % Control (or Mortality) rating: about 1 day-old larvae, 4000 ppm master solution diluted with 90:10 water/acetone, 15 μL per well plus 220 μL larval mixture, 3 days. The procedure: Certain molecules disclosed in this document were tested against YFM using procedures described in the following paragraph. In the reporting of the results, the “GPA & YFM Rating Table” was used (See Table Section).
Master plates containing 400 μg of a molecule dissolved in 100 μL of dimethyl sulfoxide (DMSO) (equivalent to a 4000 ppm solution) are used. A master plate of assembled molecules contains 15 μL per well. To this plate, 135 μL of a 90:10 water/acetone mixture is added to each well. A robot (Biomek® NXP Laboratory Automation Workstation) is programmed to dispense 15 μL aspirations from the master plate into an empty 96-well shallow plate (“daughter” plate). There are 6 reps (“daughter” plates) created per master. The created “daughter” plates are then immediately infested with YFM larvae.
The day before plates are to be treated, mosquito eggs are placed in Millipore water containing liver powder to begin hatching (4 g into 400 mL). After the “daughter” plates are created using the robot, they are infested with 220 μL of the liver powder/larval mosquito mixture (about 1 day-old larvae). After plates are infested with mosquito larvae, a non-evaporative lid is used to cover the plate to reduce drying. Plates are held at room temperature for 3 days prior to grading. After 3 days, each well is observed and scored based on mortality. The results are indicated in the table entitled “Table ABC: Biological Results” (See Table Section).

The mark [4] stands for this setting: Beet Armyworm, Table ABC / ABC-DP rating, read-out: BAW rating.
[5] abbreviates: Cabbage Looper, Table ABC / ABC-DP rating, read-out: CL rating.
Where [6] appears, read: Table ABC: Biological Results, species BAW, read-out: BAW.
Setting [7] is: Table ABC: Biological Results, species CL, read-out: CL.
Where [8] appears, read: Table ABC: Biological Results, species YFM.
The mark [9] stands for this setting: Beet Armyworm, rating class, read-out: BAW.
[10] abbreviates: Cabbage Looper, rating class, read-out: CL.
Where [11] appears, read: Yellow Fever Mosquito, rating class.

Like-named read-outs stand apart in the source and are kept apart here.

The term mortality denotes the percentage killed. Turning to `O=C(NN=Cc1ccc(F)cc1F)c1cc(NC(=O)[C@H]2[C@H](c3cc(Cl)cc(Cl)c3)C2(Cl)Cl)ccc1Cl` (relative stereo) [F3004, trans-2,2-Dichloro-N-(4-chloro-3-(2-(2,4-difluorobenzylidene)hydrazine-1-carbonyl)phenyl)-3-(3,5-dichlorophenyl)cyclopropane-1-carboxamide], the mortality at 50 µg/cm2 in data set [1] and in data set [2] was 50 to 100% in each case. In addition, the pest or weed control at 50 µg/cm2 in data set [1] (setting [4]) and in data set [2] (setting [5]) was 50 to 100% each time. Also, the YFM rating result in data set [3] (Yellow Fever Mosquito) is reported as “A (80–100)”. In data set [3], the “YFM % Control (or Mortality) rating” value is listed as “A (80–100)”.
For the compound `O=C(Nc1ccc(F)cc1F)c1cc(NC(=O)[C@H]2[C@@H](c3cc(F)c(Cl)c(Cl)c3)C2(Cl)Cl)ccc1Cl` (relative stereo) [F1025, cis-2-Chloro-5-(2,2-dichloro-3-(3,4-dichloro-5-fluorophenyl)cyclopropane-1-carboxamido)-N-(2,4-difluorophenyl)benzamide], the pest or weed control at 50 µg/cm2 in data set [1] (setting [6]) and in data set [2] (setting [7]) was 50 to 100% in each case. The YFM result in data set [3] (setting [8]) is listed as “A (80–100)”.
`O=C(Nc1ccc(F)cc1F)c1cc(NC(=O)[C@H]2[C@H](c3ccc(I)cc3)C2(Cl)Cl)ccc1Cl` (relative stereo) [F1087, trans-2-Chloro-5-(2,2-dichloro-3-(4-iodophenyl)cyclopropane-1-carboxamido)-N-(2,4-difluorophenyl)benzamide]: the pest or weed control at 50 µg/cm2 in data set [1] (setting [6]) and in data set [2] (setting [7]) was 50 to 100% each time. The YFM entry in data set [3] (setting [8]) is listed as “A (80–100)”.
As to `Cc1c(F)cc(NC(=O)[C@H]2[C@H](c3ccc(F)c(Cl)c3)C2(Cl)Cl)cc1C(=O)NCC(F)(F)F` (relative stereo) [F2063, trans-5-(2,2-Dichloro-3-(3-chloro-4-fluorophenyl)cyclopropane-1-carboxamido)-3-fluoro-2-methyl-N-(2,2,2-trifluoroethyl)benzamide], the pest or weed control at 50 µg/cm2 in data set [1] (setting [4]) and in data set [2] (setting [5]) was 50 to 100% each time. Further, the YFM rating result in data set [3] (Yellow Fever Mosquito) was “A (80–100)”.
Consider `O=C(Nc1ccc(NC(=O)C(F)(F)F)c(Cl)c1)c1cc(NC(=O)[C@H]2[C@H](c3ccc(F)c(Cl)c3)C2(Cl)Cl)ccc1Cl` (relative stereo) [F1384, trans-2-Chloro-N-(3-chloro-4-(2,2,2-trifluoroacetamido)phenyl)-5-(2,2-dichloro-3-(3-chloro-4-fluorophenyl)cyclopropane-1-carboxamido)benzamide], for which the pest or weed control at 50 µg/cm2 in data set [1] (setting [6]) and in data set [2] (setting [7]) was 50 to 100% each time. In addition, the YFM entry in data set [3] (setting [8]) is given as “A (80–100)”.
Consider `CCCC(=O)Nc1c(F)ccc(NC(=O)c2cc(NC(=O)[C@H]3[C@H](c4cc(C(F)(F)F)cc(C(F)(F)F)c4)C3(Cl)Cl)ccc2Cl)c1F` (relative stereo) [F1806, trans-5-(3-(3,5-bis(Trifluoromethyl)phenyl)-2,2-dichlorocyclopropane-1-carboxamido)-N-(3-butyramido-2,4-difluorophenyl)-2-chlorobenzamide], for which the pest or weed control at 50 µg/cm2 in data set [1] (setting [4]) and in data set [2] (setting [5]) was 50 to 100% each time. For the same compound, the YFM rating result in data set [3] (Yellow Fever Mosquito) is “A (80–100)”.
For the compound `O=C(Nc1ccc(F)cc1Br)c1cc(NC(=O)[C@H]2[C@H](c3cc(Cl)cc(Cl)c3)C2(Cl)Cl)ccc1Cl` (relative stereo) [F1305, trans-N-(2-Bromo-4-fluorophenyl)-2-chloro-5-(2,2-dichloro-3-(3,5-dichlorophenyl)cyclopropane-1-carboxamido)benzamide], the pest or weed control at 50 µg/cm2 in data set [1] (setting [6]) and in data set [2] (setting [7]) was 50 to 100% in each case. The YFM entry in data set [3] (setting [8]) is recorded as “A (80–100)”.
Consider `CC(=O)Nc1c(F)ccc(NC(=O)c2cc(NC(=O)[C@H]3[C@H](c4ccc(Cl)c(Cl)c4)C3(Cl)Cl)cc(F)c2F)c1F` [F1442, N-(3-Acetamido-2,4-difluorophenyl)-5-((1R,3R)-2,2-dichloro-3-(3,4-dichlorophenyl)cyclopropane-1-carboxamido)-2,3-difluorobenzamide], for which the pest or weed control at 50 µg/cm2 in data set [1] (setting [9]) and in data set [2] (setting [10]) was 50 to 100% each time. For the same compound, in data set [3] (setting [11]), the YFM entry is on record as “A (80–100)”.
As for `Nc1ccc(NC(=O)c2cc(NC(=O)[C@H]3[C@H](c4ccc(F)c(Cl)c4)C3(Cl)Cl)ccc2Cl)cc1Cl` (relative stereo) [F1370, trans-N-(4-Amino-3-chlorophenyl)-2-chloro-5-(2,2-dichloro-3-(3-chloro-4-fluorophenyl)cyclopropane-1-carboxamido)benzamide], the pest or weed control at 50 µg/cm2 in data set [1] (setting [6]) and in data set [2] (setting [7]) was 50 to 100% throughout. Further, the YFM entry in data set [3] (setting [8]) is given as “A (80–100)”.
Consider `O=C(COC(F)F)Nc1c(F)ccc(NC(=O)c2cc(NC(=O)[C@H]3[C@H](c4ccc(F)c(C(F)(F)F)c4)C3(Cl)Cl)ccc2Cl)c1F` [F1790, 2-Chloro-5-((1R,3R)-2,2-dichloro-3-(4-fluoro-3-(trifluoromethyl)phenyl)cyclopropane-1-carboxamido)-N-(3-(2-(difluoromethoxy)acetamido)-2,4-difluorophenyl)benzamide], for which the pest or weed control at 50 µg/cm2 in data set [1] (setting [4]) and in data set [2] (setting [5]) was 50 to 100% each time. Besides, the YFM rating entry in data set [3] (Yellow Fever Mosquito) was “A (80–100)”.
Consider `O=C(Nc1ccc(F)c(NC(=O)C(F)F)c1F)c1cc(NC(=O)[C@H]2[C@H](c3ccc(F)c(Cl)c3)C2(Cl)Cl)ccc1Cl` [F1270, 2-Chloro-5-((1R,3R)-2,2-dichloro-3-(3-chloro-4-fluorophenyl)cyclopropane-1-carboxamido)-N-(3-(2,2-difluoroacetamido)-2,4-difluorophenyl)benzamide], for which the pest or weed control at 50 µg/cm2 in data set [1] (setting [6]) and in data set [2] (setting [7]) was 50 to 100% throughout. In data set [3] (setting [8]), the YFM result is “A (80–100)”.
`O=C(NN=CCC(F)(F)F)c1cc(NC(=O)[C@H]2[C@H](c3cc(Cl)cc(Cl)c3)C2(Cl)Cl)ccc1Cl` (relative stereo) [F3008, trans-2,2-Dichloro-N-(4-chloro-3-(2-(3,3,3-trifluoropropylidene)hydrazine-1-carbonyl)phenyl)-3-(3,5-dichlorophenyl)cyclopropane-1-carboxamide]: the mortality at 50 µg/cm2 in data set [1] and in data set [2] was 50 to 100% throughout. The pest or weed control at 50 µg/cm2 in data set [1] (setting [4]) and in data set [2] (setting [5]) was 50 to 100% throughout. Besides, the YFM rating result in data set [3] (Yellow Fever Mosquito) was “A (80–100)”. The “YFM % Control (or Mortality) rating” value in data set [3] is on record as “A (80–100)”.
For `O=C(Nc1ccc(F)c(NC(=O)C(F)F)c1F)c1cc(NC(=O)[C@H]2[C@H](c3ccc(F)c(Br)c3)C2(Cl)Cl)ccc1Cl` [F1410, 5-((1R,3R)-3-(3-Bromo-4-fluorophenyl)-2,2-dichlorocyclopropane-1-carboxamido)-2-chloro-N-(3-(2,2-difluoroacetamido)-2,4-difluorophenyl)benzamide], the pest or weed control at 50 µg/cm2 in data set [1] (setting [9]) and in data set [2] (setting [10]) was 50 to 100% in each case. In addition, in data set [3] (setting [11]), the YFM entry is “A (80–100)”.
As for `O=C(Nc1ccc(F)c(NC(=O)C(F)(F)Cl)c1F)c1cc(NC(=O)[C@H]2[C@H](c3cc(Cl)c(Cl)c(Cl)c3)C2(Cl)Cl)ccc1Cl` [F1686, 2-Chloro-N-(3-(2-chloro-2,2-difluoroacetamido)-2,4-difluorophenyl)-5-((1R,3R)-2,2-dichloro-3-(3,4,5-trichlorophenyl)cyclopropane-1-carboxamido)benzamide], the pest or weed control at 50 µg/cm2 in data set [1] (setting [9]) and in data set [2] (setting [10]) was 50 to 100% each time. Also, the YFM entry in data set [3] (setting [11]) is listed as “A (80–100)”.
`CCNC(=O)c1c(Cl)ccc(NC(=O)[C@H]2[C@H](c3ccc(F)c(Cl)c3)C2(Cl)Cl)c1Cl` (relative stereo) [F2019, trans-2,6-Dichloro-3-(2,2-dichloro-3-(3-chloro-4-fluorophenyl)cyclopropane-1-carboxamido)-N-ethylbenzamide]: the pest or weed control at 50 µg/cm2 in data set [1] (setting [4]) and in data set [2] (setting [5]) was 50 to 100% each time. Also, the YFM rating result in data set [3] (Yellow Fever Mosquito) is on record as “A (80–100)”.

Source of the values: patent US20250228239A1, “MOLECULES HAVING PESTICIDAL UTILITY, AND INTERMEDIATES, COMPOSITIONS, AND PROCESSES, RELATED THERETO” (priority 2024, published 2025).
